Data taken from US20260256794A1, “Oral Dynamine Formulations and Methods Therefor” (Ortho-Nutra, LLC, priority 2023, published 2026).
Where “and” joins values, the source holds several entries; their conditions need not be identical. Equal entries are not always repeated.

Experiments:
Type in all cases: in vivo, human
subjects [1] = test: Hemodynamics: diastolic blood pressure; conditions: for Diastolic blood pressure changes from baseline, Mean Difference ± SE / Diastolic blood pressure changes from baseline, effect size d: between groups (placebo)
Experimental: (§1) The inventors have discovered various compositions and methods of improving various indices of neurological and neuroenergetic functions by administering 100 mg (once daily) dosages of DYNAMINE™ (dosage between 1.0 and 1.4 mg/kg) as described in the following:
Hemodynamics Systolic Blood Pressure, Diastolic Blood Pressure, Heart Rate were taken Pre and Post Stroop Test on Day 0; Pre and Post Stroop Test after 4 Days of Supplementation 0, 60, 120, and 180 minutes after ingestion of 4th dose.
For hemodynamic parameters, systolic blood pressure, diastolic blood pressure, and heart rate were taken pre- and post-Stroop Test on Day 0, and pre- and post-Stroop Test after 4 Days of Supplementation 0, 60, 120, and 180 minutes after ingestion of 4th dose.

subjects [2] = test: VAS-Ability to tolerate stress; design: VAS-Ability to tolerate stress rating, Mean / VAS-Ability to tolerate stress changes from baseline, Mean Difference ± SE / VAS-Ability to tolerate stress area under the curve, Mean Difference ± SE / VAS-Ability to tolerate stress area under the curve, Mean: scale not given here
Experimental: as §1
(§2) All neuroenergetic tests as listed below were performed and data were collected after 0 and 4 days of assigned supplements (with acute effects also measured at day 4 over 180 minutes):
(§3) All VAS Measurement (Energy, Sustained Energy, Mental Stamina, Ability to Focus, Ability to Concentrate, Motivation to Accomplish Difficult Tasks, Drive, Vigor, Level of Positive Outlook, Mood, Feelings of Well-Being, Tolerate Stress); Day 0: Two tests were completed. The average of both scores was computed and this value was used in all statistical analysis. Day 4 (0 minutes after ingesting dose #4): Two tests were completed. The average of both scores was computed and this value was used in all statistical analysis. Day 4 (60, 120, and 180 minutes after ingesting dose #4): One test was completed at each time point.
(§4) Neuroenergic parameters are inherently subjective, nevertheless significant in human behavior and well-being. To allow for a standardization among different subjects, the following experiments were performed using a visual analog scale using anchor statements (lowest possible/highest possible) in which subjects were asked to rate their subjective experience with respect to the specific neuroenergic parameters tested.
VAS-Ability to tolerate stress: In this subjective test, subjects were asked to rate their personal level of energy on a VAS scale using the prompt of “My ability to tolerate stress right now is . . . ” (with rating lowest possible to highest possible)”. Results were collected as noted above and Table 37 provides exemplary results for Day 0 versus Day 4 ratings, whereas Table 38 provides exemplary acute results measured at Day 4 over a duration of 180 minutes.

subjects [3] = test: VAS-Ability to focus; design: VAS-Ability to focus rating, Mean / VAS-Ability to focus changes from baseline, Mean Difference ± SE / VAS-Ability to focus area under the curve, Mean Difference ± SE / VAS-Ability to focus area under the curve, Mean: scale not given here
Experimental: as §1, §2, §3, §4
VAS-Ability to focus: In this subjective test, subjects were asked to rate their personal level of energy on a VAS scale using the prompt of “My ability to focus right now is . . . ” (with rating lowest possible to highest possible)”. Results were collected as noted above and Table 13 provides exemplary results for Day 0 versus Day 4 ratings, whereas Table 14 provides exemplary acute results measured at Day 4 over a duration of 180 minutes.

[4] = 100 mg once daily, Day 4, 60 min-0 min
[5] = 100 mg once daily, Day 4, 120 min-0 min
[6] = 100 mg once daily, Day 4, 180 min-0 min
[7] = 100 mg once daily, Day 4, 0-180 min
[8] = 100 mg once daily, Day 4, 0-180 min, vs Group A (placebo)
[9] = 100 mg once daily, Day 4, 0 min after dose #4
[10] = 100 mg once daily, Day 4, 60 min-0 min, vs Group A (placebo)
[11] = 100 mg once daily, Day 4, 60 min after dose #4
[12] = 100 mg once daily, Day 4, 120 min-0 min, vs Group A (placebo)
[13] = 100 mg once daily, Day 4, 120 min after dose #4
[14] = 100 mg once daily, Day 4, 180 min-0 min, vs Group A (placebo)
[15] = 100 mg once daily, Day 4, 180 min after dose #4

What does the source list for `COc1nc2c(c(=O)n1C)n(C)c(=O)n2C` [methylliberine, 2-methoxy-1,7,9-trimethylpurine-6,8-dione]?
Diastolic blood pressure, Mean (subjects [1]; 100 mg once daily, Day 4, 0 min after 4th dose): 77.3 mm Hg; Diastolic blood pressure changes from baseline, Mean Difference ± SE (subjects [1]; [4]): 1.28 ± 1.65 mm Hg; Diastolic blood pressure changes from baseline, effect size d (subjects [1]; [4]): −0.21; Diastolic blood pressure, Mean (subjects [1]; 100 mg once daily, Day 4, 60 min after 4th dose): 76.9 mm Hg; Diastolic blood pressure changes from baseline, Mean Difference ± SE (subjects [1]; [5]): 5.84 ± 1.55 mm Hg; Diastolic blood pressure changes from baseline, effect size d (subjects [1]; [5]): −0.84; Diastolic blood pressure, Mean (subjects [1]; 100 mg once daily, Day 4, 120 min after 4th dose): 75.6 mm Hg; Diastolic blood pressure changes from baseline, Mean Difference ± SE (subjects [1]; [6]): 2.64 ± 1.66 mm Hg; Diastolic blood pressure changes from baseline, effect size d (subjects [1]; [6]): −0.42; Diastolic blood pressure, Mean (subjects [1]; 100 mg once daily, Day 4, 180 min after 4th dose): 77.2 mm Hg; Diastolic blood pressure, Mean (subjects [1]; Day 0 (before supplementation)): 76.6 mm Hg; VAS-Ability to tolerate stress area under the curve, Mean (subjects [2]; [7]): 1075; VAS-Ability to tolerate stress area under the curve, Mean Difference ± SE (subjects [2]; [8]): 45.5 ± 45.6; VAS-Ability to tolerate stress area under the curve, effect size d (subjects [2]; [8]): −0.13; VAS-Ability to tolerate stress rating, Mean (subjects [2]; [9]): 5.7; VAS-Ability to tolerate stress changes from baseline, Mean Difference ± SE (subjects [2]; [10]): 0.17 ± 0.18; VAS-Ability to tolerate stress changes from baseline, effect size d (subjects [2]; [10]): 0.21; VAS-Ability to tolerate stress rating, Mean (subjects [2]; [11]): 6.2; VAS-Ability to tolerate stress changes from baseline, Mean Difference ± SE (subjects [2]; [12]): 0.28 ± 1.42; VAS-Ability to tolerate stress changes from baseline, effect size d (subjects [2]; [12]): 0.27; VAS-Ability to tolerate stress rating, Mean (subjects [2]; [13]): 6.4; VAS-Ability to tolerate stress changes from baseline, Mean Difference ± SE (subjects [2]; [14]): 0.67 ± 0.30; VAS-Ability to tolerate stress changes from baseline, effect size d (subjects [2]; [14]): 0.52 and 0.54; VAS-Ability to tolerate stress rating, Mean (subjects [2]; [15]): 6.4; VAS-Ability to tolerate stress rating, Mean (subjects [2]; Day 0 (before supplementation)): 6.1; VAS-Ability to focus area under the curve, Mean (subjects [3]; [7]): 1155; VAS-Ability to focus area under the curve, Mean Difference ± SE (subjects [3]; [8]): 55.3 ± 40.9; VAS-Ability to focus area under the curve, effect size d (subjects [3]; [8]): 0.17; VAS-Ability to focus rating, Mean (subjects [3]; [9]): 6.0; VAS-Ability to focus changes from baseline, Mean Difference ± SE (subjects [3]; [10]): 0.35 ± 0.30; VAS-Ability to focus changes from baseline, effect size d (subjects [3]; [10]): 0.34; VAS-Ability to focus rating, Mean (subjects [3]; [11]): 6.4; VAS-Ability to focus changes from baseline, Mean Difference ± SE (subjects [3]; [12]): 0.20 ± 0.26; VAS-Ability to focus changes from baseline, effect size d (subjects [3]; [12]): 0.20; VAS-Ability to focus rating, Mean (subjects [3]; [13]): 6.5; VAS-Ability to focus changes from baseline, Mean Difference ± SE (subjects [3]; [14]): 0.44 ± 0.24; VAS-Ability to focus changes from baseline, effect size d (subjects [3]; [14]): 0.38; VAS-Ability to focus rating, Mean (subjects [3]; [15]): 6.7; VAS-Ability to focus rating, Mean (subjects [3]; Day 0 (before supplementation)): 5.9
